The results in this text go back to patent publication US10189839B2, “Tricyclic imidazole compounds as inhibitors of tryptophan hydroxylase” (ACTELION PHARMACEUTICALS LTD, priority 2013, dated 2019).

A word on the IC50: it is the midpoint of a concentration-inhibition curve. Low values mean greater potency in that assay, high ones weaker potency in that assay.

In the assay the target is T1, full length human TPH1 (Homo sapiens, UniProt P17752).
T1 construct: To generate the enzyme, full length human TPH1 is cloned into the plasmid pET20b(+); made in house; host or cells: E. coli
T1 sequence (P17752 1-444): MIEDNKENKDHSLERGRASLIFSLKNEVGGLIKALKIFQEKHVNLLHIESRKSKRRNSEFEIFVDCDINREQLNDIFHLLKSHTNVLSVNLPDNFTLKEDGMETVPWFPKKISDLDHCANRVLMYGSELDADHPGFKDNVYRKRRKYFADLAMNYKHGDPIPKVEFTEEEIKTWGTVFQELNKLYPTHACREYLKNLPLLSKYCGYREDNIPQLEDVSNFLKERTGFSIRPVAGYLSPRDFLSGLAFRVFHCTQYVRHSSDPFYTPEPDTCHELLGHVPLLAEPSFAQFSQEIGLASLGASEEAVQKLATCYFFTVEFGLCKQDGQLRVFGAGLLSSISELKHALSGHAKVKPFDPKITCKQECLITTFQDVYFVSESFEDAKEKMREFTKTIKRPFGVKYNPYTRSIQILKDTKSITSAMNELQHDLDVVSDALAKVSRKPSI
Description: Biochemical in vitro assay using fluorescence readout (TPH1 enzyme activity). The settings on record: Table 1, mean where determined several times. In outline: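 E. coli-expressed full-length human TPH1 (40-80 nM), affinity- and size-exclusion-purified, incubated 60 min at 15° C. in 0.1M Tris-HCl pH 7.6 with 1 mM DTT, 0.2 mg/ml catalase, 100 μM 6-methyltetrahydropterine and 40 μM L-tryptophan. 5-Hydroxy-L-tryptophan read by fluorescence (ex 300/em 540 nm) after HClO4 quench; IC50 versus vehicle, mean where repeated.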
In the case of `COC(=O)c1ccc([C@@H]2c3c(nc4n3CCCC4)CCN2C(=O)COc2ccc(C(=O)NC3CC3)nc2Cl)c(F)c1` [Example 1.23.2, methyl (R)-4-(2-(2-((2-chloro-6-(cyclopropylcarbamoyl)pyridin-3-yl)oxy)acetyl)-1,2,3,4,6,7,8,9-octahydroimidazo[1,2-a:5,4-c′]dipyridin-1-yl)-3-fluorobenzoate], the IC50 was 56 nM.
As for `CC(C)(O)c1ccc(C2c3c(nc4n3CCCC4)CCN2C(=O)COc2ccc(C(=O)NC3CC3)nc2Cl)c(F)c1` (stereo not shown) [Example 1.24.1, 6-chloro-N-cyclopropyl-5-(2-(1-(2-fluoro-4-(2-hydroxypropan-2-yl)phenyl)-3,4,6,7,8,9-hexahydroimidazo[1,2-a:5,4-c′]dipyridin-2(1H)-yl)-2-oxoethoxy)picolinamide], the IC50 was determined as 68 nM.
For `CC(C)(O)c1ccc(C2c3c(nc4n3CCCC4)CCN2C(=O)COc2ccc(NS(C)(=O)=O)nc2Cl)c(F)c1` (stereo not shown) [Example 1.24.2, N-(6-chloro-5-(2-(1-(2-fluoro-4-(2-hydroxypropan-2-yl)phenyl)-3,4,6,7,8,9-hexahydroimidazo[1,2-a:5,4-c′]dipyridin-2(1H)-yl)-2-oxoethoxy)pyridin-2-yl)methanesulfonamide] the value was 131 nM.
`COC(C)(C)c1ccc(C2c3c(nc4n3CCCC4)CCN2C(=O)COc2ccc(C(=O)NC3CC3)nc2Cl)c(F)c1` (stereo not shown) [Example 1.25.1, 6-chloro-N-cyclopropyl-5-(2-(1-(2-fluoro-4-(2-methoxypropan-2-yl)phenyl)-3,4,6,7,8,9-hexahydroimidazo[1,2-a:5,4-c′]dipyridin-2(1H)-yl)-2-oxoethoxy)picolinamide] showed an IC50 of 68 nM.
For `COC(C)(C)c1ccc(C2c3c(nc4n3CCCC4)CCN2C(=O)COc2ccc(NS(C)(=O)=O)nc2Cl)c(F)c1` (stereo not shown) [Example 1.25.2, N-(6-chloro-5-(2-(1-(2-fluoro-4-(2-methoxypropan-2-yl)phenyl)-3,4,6,7,8,9-hexahydroimidazo[1,2-a:5,4-c′]dipyridin-2(1H)-yl)-2-oxoethoxy)pyridin-2-yl)methanesulfonamide] the value was 303 nM; for `COCc1ccc(C2c3c(nc4n3CCCC4)CCN2C(=O)COc2ccc(C(=O)NC3CC3)nc2Cl)c(F)c1` (stereo not shown) [Example 1.26.1, 6-chloro-N-cyclopropyl-5-(2-(1-(2-fluoro-4-(methoxymethyl)phenyl)-3,4,6,7,8,9-hexahydroimidazo[1,2-a:5,4-c′]dipyridin-2(1H)-yl)-2-oxoethoxy)picolinamide], 19 nM; for `COCc1ccc(C2c3c(nc4n3CCCC4)CCN2C(=O)COc2ccc(NS(C)(=O)=O)nc2Cl)c(F)c1` (stereo not shown) [Example 1.26.2, N-(6-chloro-5-(2-(1-(2-fluoro-4-(methoxymethyl)phenyl)-3,4,6,7,8,9-hexahydroimidazo[1,2-a:5,4-c′]dipyridin-2(1H)-yl)-2-oxoethoxy)pyridin-2-yl)methanesulfonamide], 25 nM.
To `COCCOc1ccc(C2c3c(nc4n3CCCC4)CCN2C(=O)COc2ccc(C(=O)NC3CC3)nc2Cl)c(F)c1` (stereo not shown) [Example 1.27.1, 6-chloro-N-cyclopropyl-5-(2-(1-(2-fluoro-4-(2-methoxyethoxy)phenyl)-3,4,6,7,8,9-hexahydroimidazo[1,2-a:5,4-c′]dipyridin-2(1H)-yl)-2-oxoethoxy)picolinamide] belongs 60 nM; to `COCCOc1ccc(C2c3c(nc4n3CCCC4)CCN2C(=O)COc2ccc(NS(C)(=O)=O)nc2Cl)c(F)c1` (stereo not shown) [Example 1.27.2, N-(6-chloro-5-(2-(1-(2-fluoro-4-(2-methoxyethoxy)phenyl)-3,4,6,7,8,9-hexahydroimidazo[1,2-a:5,4-c′]dipyridin-2(1H)-yl)-2-oxoethoxy)pyridin-2-yl)methanesulfonamide], 34 nM.
Compound `O=C(NC1CC1)c1ccc(OCC(=O)N2CCc3nc4n(c3C2c2ccc(OCCO)cc2F)CCCC4)c(Cl)n1` (stereo not shown) [Example 1.28.1, 6-chloro-N-cyclopropyl-5-(2-(1-(2-fluoro-4-(2-hydroxyethoxy)phenyl)-3,4,6,7,8,9-hexahydroimidazo[1,2-a:5,4-c′]dipyridin-2(1H)-yl)-2-oxoethoxy)picolinamide] gave an IC50 of 54 nM.
To `CS(=O)(=O)Nc1ccc(OCC(=O)N2CCc3nc4n(c3C2c2ccc(OCCO)cc2F)CCCC4)c(Cl)n1` (stereo not shown) [Example 1.28.2, N-(6-chloro-5-(2-(1-(2-fluoro-4-(2-hydroxyethoxy)phenyl)-3,4,6,7,8,9-hexahydroimidazo[1,2-a:5,4-c′]dipyridin-2(1H)-yl)-2-oxoethoxy)pyridin-2-yl)methanesulfonamide] belongs 21 nM.
To `CS(=O)(=O)Nc1ccc(OCC(=O)N2CCc3nc4n(c3C2c2ccc(Cl)cc2F)CCC4)c(Cl)n1` (stereo not shown) [Example 2.1.1, N-(6-chloro-5-(2-(1-(4-chloro-2-fluorophenyl)-3,4,7,8-tetrahydro-1H-pyrrolo[2′,1′:2,3]imidazo[4,5-c]pyridin-2(6H)-yl)-2-oxoethoxy)pyridin-2-yl)methanesulfonamide] belongs 13 nM; to `CCc1nc(NS(C)(=O)=O)ccc1OCC(=O)N1CCc2nc3n(c2C1c1ccc(Cl)cc1F)CCC3` (stereo not shown) [Example 2.1.2, N-(5-(2-(1-(4-chloro-2-fluorophenyl)-3,4,7,8-tetrahydro-1H-pyrrolo[2′,1′:2,3]imidazo[4,5-c]pyridin-2(6H)-yl)-2-oxoethoxy)-6-ethylpyridin-2-yl)methanesulfonamide], 13 nM.
For `CCc1nc(N2CCCS2(=O)=O)ccc1OCC(=O)N1CCc2nc3n(c2C1c1ccc(Cl)cc1F)CCC3` (stereo not shown) [Example 2.1.3, 1-(1-(4-chloro-2-fluorophenyl)-3,4,7,8-tetrahydro-1H-pyrrolo[2′,1′:2,3]imidazo[4,5-c]pyridin-2(6H)-yl)-2-((6-(1,1-dioxidoisothiazolidin-2-yl)-2-ethylpyridin-3-yl)oxy)ethanone] the value was 8 nM; for `Cc1ccc(C2c3c(nc4n3CCC4)CCN2C(=O)COc2ccc(NS(C)(=O)=O)nc2Cl)c(F)c1` (stereo not shown) [Example 2.2.1, N-(6-chloro-5-(2-(1-(2-fluoro-4-methylphenyl)-3,4,7,8-tetrahydro-1H-pyrrolo[2′,1′:2,3]imidazo[4,5-c]pyridin-2(6H)-yl)-2-oxoethoxy)pyridin-2-yl)methanesulfonamide], 15 nM; for `CCc1nc(NS(C)(=O)=O)ccc1OCC(=O)N1CCc2nc3n(c2C1c1ccc(C)c(F)c1F)CCC3` (stereo not shown) [Example 2.3.1, N-(5-(2-(1-(2,3-difluoro-4-methylphenyl)-3,4,7,8-tetrahydro-1H-pyrrolo[2′,1′:2,3]imidazo[4,5-c]pyridin-2(6H)-yl)-2-oxoethoxy)-6-ethylpyridin-2-yl)methanesulfonamide], 8 nM.
On to `CCc1nc(N2CCCS2(=O)=O)ccc1OCC(=O)N1CCc2nc3n(c2C1c1sc(C)nc1C)CCC3` (stereo not shown) [Example 2.4.1, 1-(1-(2,4-dimethylthiazol-5-yl)-3,4,7,8-tetrahydro-1H-pyrrolo[2′,1′:2,3]imidazo[4,5-c]pyridin-2(6H)-yl)-2-((6-(1,1-dioxidoisothiazolidin-2-yl)-2-ethylpyridin-3-yl)oxy)ethanone], for which the IC50 turned out to be 8 nM.
As to `CCc1nc(NS(C)(=O)=O)ccc1OCC(=O)N1CCc2nc3n(c2[C@@H]1c1sc(C)nc1C)CCC3` [Example 2.4.2, (R)-N-(5-(2-(1-(2,4-dimethylthiazol-5-yl)-3,4,7,8-tetrahydro-1H-pyrrolo[2′,1′:2,3]imidazo[4,5-c]pyridin-2(6H)-yl)-2-oxoethoxy)-6-ethylpyridin-2-yl)methanesulfonamide], the IC50 was found to be 7 nM.
To `CCc1nc(C(=O)NC2CC2)ccc1OCC(=O)N1CCc2nc3n(c2[C@@H]1c1sc(C)nc1C)CCC3` [Example 2.4.3, (R)-N-cyclopropyl-5-(2-(1-(2,4-dimethylthiazol-5-yl)-3,4,7,8-tetrahydro-1H-pyrrolo[2′,1′:2,3]imidazo[4,5-c]pyridin-2(6H)-yl)-2-oxoethoxy)-6-ethylpicolinamide] belongs 9 nM; to `CCc1nc(N2CCCS2(=O)=O)ccc1OCC(=O)N1CCc2nc3n(c2[C@@H]1c1sc(C)nc1C)CCC3` [Example 2.4.4, (R)-1-(1-(2,4-dimethylthiazol-5-yl)-3,4,7,8-tetrahydro-1H-pyrrolo[2′,1′:2,3]imidazo[4,5-c]pyridin-2(6H)-yl)-2-((6-(1,1-dioxidoisothiazolidin-2-yl)-2-ethylpyridin-3-yl)oxy)ethanone], 7 nM.
For `CS(=O)(=O)Nc1ccc(OCC(=O)N2CCc3nc4n(c3C2c2ccc(Cl)cc2F)CCCCC4)c(Cl)n1` (stereo not shown) [Example 3.1.1, N-(6-chloro-5-(2-(1-(4-chloro-2-fluorophenyl)-3,4,7,8,9,10-hexahydro-1H-pyrido[4′,3′:4,5]imidazo[1,2-a]azepin-2(6H)-yl)-2-oxoethoxy)pyridin-2-yl)methanesulfonamide] the value was 26 nM; for `Cc1ccc(C2c3c(nc4n3CCCCC4)CCN2C(=O)COc2ccc(NS(C)(=O)=O)nc2Cl)c(F)c1` (stereo not shown) [Example 3.2.1, N-(6-chloro-5-(2-(1-(2-fluoro-4-methylphenyl)-3,4,7,8,9,10-hexahydro-1 H-pyrido[4′,3′:4,5]imidazo-[1,2-a]azepin-2(6H)-yl)-2-oxoethoxy)pyridin-2-yl)methanesulfonamide], 21 nM.
